Laboratory results from patent US6458351B2, “Naturally extracted and synthetic hypoglycemic or hypolipidemic compositions” (priority 1999, dated 2002).

What was measured:
[1] = test system: yeast cells (Yeast strain Carlsbergensis); assay: Yeast fermentation assay (rate of CO2 production under anaerobic conditions); type: cell-based, S. carlsbergensis; settings: synthetic chromium complexes; for Activity in yeast fermentation assay, CO2 production (in words): different concentrations
Experimental: The cells were kept on a solid chromium depleted medium that contained 6.7 g yeast nitrogen base, 20 g of glucose, and 18 g agar per liter. Cells were grown over night in a liquid medium without Cr. Yeast cells were harvested during stationary phase, washed twice and resuspended in 0.1M phosphate buffer pH 5.7. An aliquot of 3×10^8 cells/ml was anaerobically incubated at 30° C. in Warburg vessels in the presence of 10 mM glucose and the examined fraction of GTF extracted from yeast. Enhancement of fermentation rate by natural or synthetic chromium compounds was measured.
Yeast cells were grown over night in liquid medium without Cr. Yeast cells were harvested during stationary phase, washed twice and resuspended in 0.1M phosphate buffer pH 5.7. An aliquot of 3×10^7 cells/ml was anaerobically incubated at 30° C. in Warburg vessels in the presence of 10 mM glucose and the examined fractions extracted from Saltbush.
The activity of the synthetic chromium complexes was examined in the yeast fermentation assay as described above. All the complexes were tested by adding samples of the subject complex, and measuring the rate of CO2 production.

[2] = test system: streptozoatocin diabetic rats; assay: Effect on insulin activity / blood glucose in streptozotocin diabetic rats; type: in vivo; settings: single dose; insulin at marginal dose 0.005-0.025 mg/Kg body weight
Experimental: Sprague Dawly male rats weighing 120-130 g were injected subcutanously with a single dose of streptozotocin (60 mg/kg body weight) in 0.5 ml citrate buffer, 0.05 M pH 4.5. Plasma glucose concentrations were measured seven days later using commercial glucometer. Animals with blood glucose higher than 250 mg/dl were chosen for the subsequent test with fractions purified from yeast extract or the Saltbush, as described in section 5.1 and 5.2.
When a marginal dose of insulin (0.005-0.025 mg/Kg body weight ) was injected into streptozoatocin diabetic rats a decrease of 10%-15% in blood glucose was observed after the injection. A single dose of active chromium fraction extraction from yeast decreased blood glucose by 15%-20%. A combination of both insulin and chromium containing natural compound from yeast created much higher reduction in blood glucose of 40%-45% reduction.

| Molecule | Activity in yeast fermentation assay, CO2 production (in words) [1] | Inhibition of yeast fermentation at high concentrations (in words) [1] | Activity in yeast fermentation assay, CO2 production (in words) ([1]; listed as Chromium axcorbate) | Decrease in blood glucose [2] |
| --- | --- | --- | --- | --- |
| N[C@@H](CCC(=O)N[C@@H](CS)C(=O)NCC(=O)O)C(=O)O.[Cr] [Cr-GSH, Chromium-Glutathione] | increases the production of CO2 | partial inhibition | – | – |
| CC(=O)N[C@@H](CS)C(=O)O.[Cr] [Cr-NAC, Chromium N-Acetyl Cysteine] | increases the production of CO2 | partial inhibition | – | – |
| Chromium Ascorbate [Cr-Asc] | most active | without any inhibition | enhances the production of CO2 | – |
| insulin | – | – | – | 10%-15% |
